Assay [1] is described as follows: Inhibition of NS5A in HCV genotype 4a ED43 infected in human HuH7 transient chimeric replicon cells assessed as reduction in viral replication after 3 days by luciferase reporter gene assay. In general terms: A replicon is a self-replicating genome or part of one, used to study replication in cells.
Assay [2] can be described thus: Inhibition of NS5A in HCV genotype 2b MD2b-1 infected in human HuH7 replicon cells assessed as reduction in viral replication after 3 days by luciferase reporter gene assay.
Assay [3] in a line: Inhibition of NS5A in HCV genotype 1b Con1 infected in human HuH7 replicon cells assessed as reduction in viral replication after 3 days by luciferase reporter gene assay.
The nature of assay [4]: Inhibition of NS5A L31M mutant in HCV genotype 2a JFH1 (M31) infected in human HuH7 replicon cells assessed as reduction in viral replication after 3 days by luciferase reporter gene assay.
Assay [5] can be described thus: Inhibition of NS5A in HCV genotype 1a H77 infected in human HuH7 replicon cells assessed as reduction in viral replication after 3 days by luciferase reporter gene assay.
Assay [6] in a line: Inhibition of NS5A L31M mutant in HCV genotype 2a J6 (M31) infected in human HuH7 replicon cells assessed as reduction in viral replication after 3 days by luciferase reporter gene assay.
The nature of assay [7]: Inhibition of NS5A in HCV genotype 3a S52 infected in human HuH7 transient chimeric replicon cells assessed as reduction in viral replication after 3 days by luciferase reporter gene assay.
Assay [8] can be described thus: Inhibition of NS5A in HCV genotype 2a J6 infected in human HuH7 replicon cells assessed as reduction in viral replication after 3 days by luciferase reporter gene assay.
Assay [9] is described as follows: Inhibition of NS5A in HCV genotype 5a SA13 infected in human HuH7 replicon cells assessed as reduction in viral replication after 3 days by luciferase reporter gene assay.
The nature of assay [10]: Inhibition of NS5A in HCV genotype 6a HK6 infected in human HuH7 replicon cells assessed as reduction in viral replication after 3 days by luciferase reporter gene assay.
A short description of assay [11]: Inhibition of NS5A in HCV genotype 4a ED43 infected in human HuH7 replicon cells assessed as reduction in viral replication after 3 days by luciferase reporter gene assay.
Assay [12] in a line: Inhibition of NS5A in HCV genotype 6e D88 infected in human HuH7 replicon cells assessed as reduction in viral replication after 3 days by luciferase reporter gene assay.
Assay [13] in a line: Inhibition of NS5A L31M mutant in HCV genotype 2a JFH1 infected in human HuH7 replicon cells assessed as reduction in viral replication after 3 days by luciferase reporter gene assay.
The nature of assay [14]: Inhibition of NS5A in HCV genotype 2a JFH1 (L31) infected in human HuH7 replicon cells assessed as reduction in viral replication after 3 days by luciferase reporter gene assay.
Assay [15] in a line: Inhibition of NS5A L31M mutant in patient derived HCV genotype 2b MD2b-1 infected in human HuH7 replicon cells assessed as reduction in viral replication after 3 days by luciferase reporter gene assay.
A short description of assay [16]: Inhibition of NS5A in HCV genotype 3a S52 infected in human HuH7 replicon cells assessed as reduction in viral replication after 3 days by luciferase reporter gene assay.
A short description of assay [17]: Inhibition of NS5A Q30H mutant in HCV genotype 1a infected in human HuH7 replicon cells assessed as reduction in viral replication after 3 days by luciferase reporter gene assay.
Assay [18] is described as follows: Inhibition of NS5A Y93H mutant in HCV genotype 1b infected in human HuH7 replicon cells assessed as reduction in viral replication after 3 days by luciferase reporter gene assay.
A short description of assay [19]: Inhibition of NS5A in wild type HCV genotype 1a infected in human HuH7 replicon cells assessed as reduction in viral replication after 3 days by luciferase reporter gene assay.
Assay [20] in a line: Inhibition of NS5A Y93H mutant in HCV genotype 1a infected in human HuH7 replicon cells assessed as reduction in viral replication after 3 days by luciferase reporter gene assay.
Assay [21] is described as follows: Inhibition of NS5A Q30R mutant in HCV genotype 1a infected in human HuH7 replicon cells assessed as reduction in viral replication after 3 days by luciferase reporter gene assay.
Assay [22] in a line: Inhibition of NS5A Y93C mutant in HCV genotype 1a infected in human HuH7 replicon cells assessed as reduction in viral replication after 3 days by luciferase reporter gene assay.
A short description of assay [23]: Inhibition of NS5A Q30E mutant in HCV genotype 1a infected in human HuH7 replicon cells assessed as reduction in viral replication after 3 days by luciferase reporter gene assay.
A short description of assay [24]: Inhibition of NS5A M28T mutant in HCV genotype 1a infected in human HuH7 replicon cells assessed as reduction in viral replication after 3 days by luciferase reporter gene assay.
Assay [25] can be described thus: Inhibition of NS5A in wild type HCV genotype 1b infected in human HuH7 replicon cells assessed as reduction in viral replication after 3 days by luciferase reporter gene assay.
Assay [26] is described as follows: Inhibition of NS5A L31M mutant in HCV genotype 1a infected in human HuH7 replicon cells assessed as reduction in viral replication after 3 days by luciferase reporter gene assay.

`COC[C@H]1C[C@@H](c2nc3ccc4cc5c(cc4c3[nH]2)OCc2cc(-c3cnc([C@@H]4CC[C@H](C)N4C(=O)[C@@H](NC(=O)OC)C(C)C)[nH]3)ccc2-5)N(C(=O)[C@@H](NC(=O)OC)C(C)C)C1`: the EC50 (in general, the concentration giving half of the maximal effect) in assay [1] is 0.015 nM; in assay [2] it was 0.157 nM; in assay [3], 0.017 nM; in [4], 0.012 nM; in assay [5] it was 0.011 nM; in [6] it was 0.067 nM. For the same compound, the EC50 in assay [7] was 0.061 nM.
Regarding `COC[C@H]1C[C@@H](c2nc3ccc4cc5c(cc4c3[nH]2)OCc2cc(-c3cnc([C@@H]4C[C@H](C)CN4C(=O)[C@@H](NC(=O)OC)C(C)C)[nH]3)ccc2-5)N(C(=O)[C@@H](NC(=O)OC)C(C)C)C1`, the EC50 in [1] was determined as 0.022 nM; in [2], 0.166 nM; in [3], 0.019 nM; in assay [4], 0.009 nM; in [5], 0.014 nM; in [6], 0.106 nM. Also, in assay [7], the EC50 came out at 0.058 nM.
Consider `COC[C@H]1C[C@@H](c2ncc(-c3cc4c5c(c3)OCc3cc(-c6cnc([C@@H]7CC[C@H](C)N7C(=O)[C@@H](NC(=O)OC)C(C)C)[nH]6)cc(c3-5)OC4)[nH]2)N(C(=O)[C@H](NC(=O)OC)c2ccccc2)C1`, for which the concentration for a half-maximal effect (EC50) in [8] turned out to be 0.48 nM; in [9], 0.081 nM; in assay [2] it was 0.29 nM; in assay [10], 0.022 nM; in assay [3], 0.016 nM; in [5] it was 0.016 nM. The figures for the EC50 in [7], in assay [11] and in [12] were 0.12 nM, 0.013 nM and 0.11 nM, respectively.
Consider `COC(=O)N[C@H](C(=O)N1CCC[C@H]1c1ncc(-c2ccc3c(c2)COc2cc4c(ccc5nc([C@@H]6C[C@H](C)CN6C(=O)[C@@H](NC(=O)OC)C(C)C)[nH]c54)cc2-3)[nH]1)C(C)C`, for which the EC50 in assay [1] amounted to 0.011 nM; in assay [2] it was 0.132 nM; in [3], 0.018 nM; in assay [4], 0.007 nM; in assay [5] it was 0.011 nM; in [6], 0.443 nM. Besides, in assay [7], the EC50 was 0.018 nM.
As to `COC(=O)N[C@H](C(=O)N1CCC[C@H]1c1ncc(-c2cc3c4c(c2)OCc2cc(-c5cnc([C@@H]6CCCN6C(=O)[C@@H](NC(=O)OC)C(C)C)[nH]5)cc(c2-4)OC3)[nH]1)C(C)C`, the concentration giving a half-maximal response (EC50) in assay [13] is 5.9 nM; in [14] it was 0.007 nM; in assay [9] it was 0.056 nM; in assay [1], 0.029 nM; in assay [10], 0.016 nM; in assay [3] it was 0.022 nM. For the same compound, the concentration giving a half-maximal response (EC50) was 1.77 nM in assay [15]; 0.029 nM in [5]; 8.81 nM in [6]; 0.055 nM in [7]; 1.16 nM in [12].
In the case of `CCO[C@H]1C[C@@H](c2nc3ccc4cc5c(cc4c3[nH]2)OCc2cc(-c3cnc([C@@H]4CCCN4C(=O)[C@@H](NC(=O)OC)C(C)C)[nH]3)ccc2-5)N(C(=O)[C@@H](NC(=O)OC)C(C)C)C1`, the EC50 came to 0.02 nM in [1]; 0.265 nM in assay [2]; 0.018 nM in assay [3]; 0.007 nM in assay [4]; 0.015 nM in assay [5]; 0.378 nM in assay [6]. Besides, the 50% effective concentration (EC50) in assay [7] turned out to be 0.048 nM.
Regarding `COC[C@H]1C[C@@H](c2ncc(-c3ccc4c(c3)COc3cc5c(ccc6nc([C@@H]7C[C@H](COC)CN7C(=O)[C@@H](NC(=O)OC)C(C)C)[nH]c65)cc3-4)[nH]2)N(C(=O)[C@@H](NC(=O)OC)C(C)C)C1`, the EC50 worked out at 0.036 nM in assay [1]; 0.18 nM in assay [2]; 0.034 nM in assay [3]; 0.01 nM in assay [4]; 0.024 nM in assay [5]; 0.061 nM in assay [6]. The half-maximal effective concentration (EC50) in [7] worked out at 0.206 nM.
Turning to `COC(=O)N[C@H](C(=O)N1CCC[C@H]1c1ncc(-c2ccc3c(c2)COc2cc4c(ccc5nc([C@@H]6CC[C@H](C)N6C(=O)[C@@H](NC(=O)OC)C(C)C)[nH]c54)cc2-3)[nH]1)C(C)C`, the EC50 was found to be 0.018 nM in assay [3]; 0.019 nM in assay [4]; 0.011 nM in assay [5]; 0.234 nM in assay [6]; 0.02 nM in assay [11]; 0.077 nM in [16].
As to `COC(=O)N[C@H](C(=O)N1[C@@H](C)CC[C@H]1c1ncc(-c2ccc3c(c2)COc2cc4c(ccc5nc([C@@H]6CC[C@H](C)N6C(=O)[C@@H](NC(=O)OC)C(C)C)[nH]c54)cc2-3)[nH]1)C(C)C`, the EC50 in [1] worked out at 0.008 nM; in [2], 0.063 nM; in assay [3], 0.012 nM; in [4], 0.014 nM; in assay [5] it was 0.008 nM; in assay [6], 0.28 nM. In [7], the EC50 came to 0.02 nM.
On to `COC[C@H]1C[C@@H](c2nc3ccc4cc5c(cc4c3[nH]2)OCc2cc(-c3cnc([C@@H]4CCCN4C(=O)[C@@H](NC(=O)OC)C(C)C)[nH]3)ccc2-5)N(C(=O)[C@@H](NC(=O)OC)C(C)C)C1`, for which the concentration for a half-maximal effect (EC50) in assay [17] turned out to be 0.15 nM; in assay [18] it was 0.086 nM; in assay [1] it was 0.014 nM; in assay [19] it was 0.037 nM; in assay [2], 0.135 nM; in [20] it was 4.7 nM. Also, the EC50 in assay [3] is 0.026 nM; in [21], 0.22 nM; in [22], 0.22 nM; in [4], 0.008 nM; in assay [5], 0.021 nM; in [6] it was 0.28 nM. For the same compound, the EC50 in [7] amounted to 0.024 nM; in assay [23] it was 10 nM; in [24], 0.19 nM; in assay [25], 0.026 nM; in [26] it was 0.37 nM.
